In patent US4849345A, “L-phenylalanine dehydrogenase and use thereof” (priority 1985, dated 1989):
Where two headings read alike, the source gives them in different places.

Legend:
Format in all cases: biochemical
[1] = target: T1, L-phenylalanine dehydrogenase produced by Sporosarcina ureae SCRC-R04 (Sporosarcina ureae, UniProt P97014); test: Substrate and coenzyme specificity, oxidative deamination (Sporosarcina enzyme); conditions: oxidative deamination; for activity at 10000 µM: substrate concentration 10 mM, L-phenylalanine = 100
T1 sequence (P97014 1-379): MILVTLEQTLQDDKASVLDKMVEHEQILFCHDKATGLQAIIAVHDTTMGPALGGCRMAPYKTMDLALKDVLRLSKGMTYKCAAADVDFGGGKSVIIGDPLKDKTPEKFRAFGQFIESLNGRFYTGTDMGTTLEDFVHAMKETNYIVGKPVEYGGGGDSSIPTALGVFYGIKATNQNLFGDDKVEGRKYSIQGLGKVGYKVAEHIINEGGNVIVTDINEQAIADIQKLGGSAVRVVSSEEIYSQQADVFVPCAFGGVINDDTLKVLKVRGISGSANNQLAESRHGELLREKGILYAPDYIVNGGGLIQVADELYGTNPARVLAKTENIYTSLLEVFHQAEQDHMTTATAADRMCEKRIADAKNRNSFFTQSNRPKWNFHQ
Procedure: The substrate concentration is 10 mM, except for the L-tyrosine concentration which is 1.4 mM.

[2] = target: T1, L-phenylalanine dehydrogenase produced by Sporosarcina ureae SCRC-R04; test: biochemical; conditions: for activity at 1000 µM: read-out: Relative activity
[3] = target: T2, L-phenylalanine dehydrogenase produced by Bacillus sp. SCRC-R79a (Lysinibacillus sphaericus, UniProt P23307); test: Effect of metal ions and inhibitors on enzyme activity (Bacillus enzyme); set-up: inoculated with Bacillus sp; endogenous in cells; host or cells: Bacillus sp; enzyme purified in house; conditions: for activity at 1000 µM: read-out: Relative activity
T2 sequence (P23307 1-381): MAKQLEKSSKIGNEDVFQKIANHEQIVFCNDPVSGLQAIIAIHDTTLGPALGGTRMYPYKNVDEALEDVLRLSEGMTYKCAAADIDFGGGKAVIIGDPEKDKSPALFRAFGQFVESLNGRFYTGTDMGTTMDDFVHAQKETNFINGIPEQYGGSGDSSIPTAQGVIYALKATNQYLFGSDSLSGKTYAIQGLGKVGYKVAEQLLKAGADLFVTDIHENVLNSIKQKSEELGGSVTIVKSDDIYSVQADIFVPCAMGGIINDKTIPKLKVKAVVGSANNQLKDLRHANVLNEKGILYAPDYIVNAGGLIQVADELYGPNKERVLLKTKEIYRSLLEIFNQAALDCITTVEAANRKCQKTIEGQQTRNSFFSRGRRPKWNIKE
Procedure: Unless otherwise described, the concentration of metal cations and inhibitors is 1 mM.

[4] = target: T2, L-phenylalanine dehydrogenase produced by Bacillus sp. SCRC-R79a; test: Substrate and coenzyme specificity, oxidative deamination (Bacillus enzyme); set-up: inoculated with Bacillus sp; endogenous in cells; host or cells: Bacillus sp; enzyme purified in house
Procedure: The substrate concentration is 10 mM except for the L-tyrosine concentration which is 1.4 mM.

[5] = 1 mM, not added = 100, listed as Fe^3+, 1000 µM
[6] = read-out: Relative activity (%)
[7] = oxidative deamination, substrate concentration 10 mM, L-phenylalanine = 100, read-out: Relative activity (%)

SMILES: NC(C(=O)O)c1ccccc1 (racemic) [DL-phenylglycine]
- action of the enzyme on the amino acid as substrate (in words) [1]: cannot serve as a substrate

SMILES: O=C(O)c1cc(SSc2ccc([N+](=O)[O-])c(C(=O)O)c2)ccc1[N+](=O)[O-] [5,5'-Dithio-bis(2-nitrobenzoic acid)]
- effect on enzyme activity (in words) [2]: inhibited
- activity at 1000 µM ([2]; 1 mM, not added = 100): 0%
- activity at 1000 µM ([3]; 1 mM, not added = 100): 74%

SMILES: Oc1cccc2cccnc12 [8-Oxyquinoline]
- Relative activity ([2]; 1000 µM): 101
- Relative activity ([3]; 1000 µM): 96

SMILES: [Ag+] [Ag^+]
- effect on enzyme activity (in words) [2]: inhibited
- Relative activity ([2]; 1 mM, not added = 100): 0%
- effect on enzyme activity (in words) [3]: inhibited
- Relative activity ([3]; 1 mM, not added = 100): 0%

SMILES: [Al+3] [Al^3+]
- Relative activity ([2]; 1 mM, not added = 100): 153%
- Relative activity ([3]; 1 mM, not added = 100): 99%

SMILES: [Ba+2] [Ba^2+]
- Relative activity ([2]; 1 mM, not added = 100): 106%
- Relative activity ([3]; 1 mM, not added = 100): 93%

SMILES: [Ca+2] [Ca^2+]
- Relative activity ([2]; 1 mM, not added = 100): 100%
- Relative activity ([3]; 1 mM, not added = 100): 92%

SMILES: [Cd+2] [Cd^2+]
- Relative activity ([2]; 1 mM, not added = 100): 70%
- Relative activity ([3]; 1 mM, not added = 100): 102%

SMILES: [Cu+2] [Cu^2+]
- Relative activity ([2]; 1 mM, not added = 100): 91%
- Relative activity ([3]; 1 mM, not added = 100): 85%

SMILES: N[C@H](Cc1ccccc1)C(=O)O [D-phenylalanine]
- action of the enzyme on the amino acid as substrate (in words) ([4]; oxidative deamination): cannot serve as a substrate
- action of the enzyme on the amino acid as substrate (in words) [1]: cannot serve as a substrate

SMILES: O=C(O)CN(CCN(CC(=O)O)CC(=O)O)CC(=O)O [EDTA]
- activity at 1000 µM [2]: 119%
- activity at 1000 µM [3]: 120%

SMILES: [Fe+2] [Fe^2+]
- Relative activity ([2]; 1 mM, not added = 100, 1000 µM): 127%
- Relative activity [2, 5]: 161%
- Relative activity ([3]; 1 mM, not added = 100, 1000 µM): 116%
- Relative activity [3, 5]: 117%

SMILES: [Hg+2] [Hg^2+]
- effect on enzyme activity (in words) [2]: inhibited
- Relative activity ([2]; 0.01 mM, not added = 100): 0%
- effect on enzyme activity (in words) [3]: inhibited
- Relative activity ([3]; 0.01 mM, not added = 100): 38%

SMILES: NO [Hydroxylamine]
- Relative activity ([2]; 10 mM, not added = 100): 173%
- Relative activity ([3]; 10 mM, not added = 100): 90%

SMILES: O=C(O)CI [Iodoacetic acid]
- activity at 1000 µM [2]: 91%
- activity at 1000 µM [3]: 127%

SMILES: CCSCC[C@H](N)C(=O)O [L--Ethionine, L-ethionine]
- activity at 10000 µM [4, 6]: 3.1%
- activity at 10000 µM [1, 6]: 7%

SMILES: CC[C@H](C)[C@H](N)C(=O)O [L--Isoleucine, L-isoleucine]
- action of the enzyme on the amino acid as substrate (in words) ([4]; oxidative deamination): cannot serve as a substrate
- activity at 10000 µM [1, 6]: 0.54%

SMILES: CC(C)C[C@H](N)C(=O)O [L--Leucine, L-leucine]
- action of the enzyme on the amino acid as substrate (in words) ([4]; oxidative deamination): cannot serve as a substrate
- activity at 10000 µM [1, 6]: 2.3%

SMILES: CSCC[C@H](N)C(=O)O [L--Methionine, L-methionine]
- action of the enzyme on the amino acid as substrate (in words) ([4]; oxidative deamination): acting very weakly
- activity at 10000 µM [4, 6]: 3%
- action of the enzyme on the amino acid as substrate (in words) [1]: act very weakly
- activity at 10000 µM [1, 6]: 4.1%

SMILES: CCCC[C@H](N)C(=O)O [L--Norleucine, L-norleucine]
- activity at 10000 µM [4, 7]: 3.9%
- activity at 10000 µM [1, 6]: 15%

SMILES: CCC[C@H](N)C(=O)O [L--Norvaline, L-norvaline]
- activity at 10000 µM [4, 7]: 1.3%
- activity at 10000 µM [1, 6]: 6.3%

SMILES: N[C@@H](Cc1ccccc1)C(=O)O [L--Phenylalanine, L-phenylalanine]
- action of the enzyme on the amino acid as substrate (in words) ([4]; oxidative deamination): acting strongly
- activity at 10000 µM [4, 7]: 100%
- action of the enzyme on the amino acid as substrate (in words) [1]: acting strongly
- activity at 10000 µM [1, 6]: 100%

SMILES: N[C@@H](Cc1c[nH]c2ccccc12)C(=O)O [L--Tryptophan, L-tryptophan]
- action of the enzyme on the amino acid as substrate (in words) ([4]; oxidative deamination): acting very weakly
- activity at 10000 µM [4, 7]: 1.6%
- action of the enzyme on the amino acid as substrate (in words) [1]: act very weakly
- activity at 10000 µM [1, 6]: 6.8%

SMILES: N[C@@H](Cc1ccc(O)cc1)C(=O)O [L--Tyrosine, L-tyrosine]
- action of the enzyme on the amino acid as substrate (in words) ([4]; oxidative deamination): acting strongly
- activity at 1400 µM [4, 6]: 72%
- action of the enzyme on the amino acid as substrate (in words) [1]: act very weakly
- activity at 1400 µM ([1]; substrate concentration 1.4 mM, read-out: Relative activity (%)): 5.4%

SMILES: CC(C)[C@H](N)C(=O)O [L--Valine, L-valine]
- action of the enzyme on the amino acid as substrate (in words) ([4]; oxidative deamination): cannot serve as a substrate
- activity at 10000 µM [1, 6]: 3.1%
